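Five compound concentrations were applied to cells in 96-well plates for 48 hours; endpoints were derived by simple linear interpolation of the resulting dose-response curve. Abbreviation: GI50, concentration required for 50% inhibition of growth.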 Active and inactive are the calls of the source. Cut-off read from the data, not from the text of the source: active = GI50 up to about 1.1 µM and inactive = higher.
How the values were obtained:
Assay in all cases: NCI tumour cell line growth inhibition, 48 h
MDA-N = test system: MDA-N
PC-3 = test system: PC-3
SNB-19 = test system: SNB-19
T47D = test system: T47D
HCT-116 = test system: HCT-116
SNB-75 = test system: SNB-75
LOX IMVI = test system: LOX IMVI
NCI-H23 = test system: NCI-H23
RXF 393 = test system: RXF 393
Hs-578T = test system: Hs-578T
SW-620 = test system: SW-620
Malme-3M = test system: Malme-3M
SK-OV-3 = test system: SK-OV-3
TK-10 = test system: TK-10
MDA-MB-231 = test system: MDA-MB-231
MCF7 = test system: MCF7
HOP-62 = test system: HOP-62
CCRF-CEM = test system: CCRF-CEM

SMILES	GI50 (MDA-N)	GI50 (PC-3)	GI50 (SNB-19)	GI50 (T47D)	GI50 (HCT-116)	GI50 (SNB-75)	GI50 (LOX IMVI)	GI50 (NCI-H23)	GI50 (RXF 393)	GI50 (Hs-578T)	GI50 (SW-620)	GI50 (Malme-3M)	GI50 (SK-OV-3)	GI50 (TK-10)	GI50 (MDA-MB-231)	GI50 (MCF7)	GI50 (HOP-62)	GI50 (CCRF-CEM)
S=C(Nc1ccc2cn[nH]c2c1)Nc1ccc2cn[nH]c2c1	57.4 µM (inactive)	48.5 µM (inactive)	> 100 µM (inactive)	33.5 µM (inactive)	58.5 µM (inactive)	53 µM (inactive)	70 µM (inactive)	41.6 µM (inactive)	> 100 µM (inactive)	> 100 µM (inactive)	> 100 µM (inactive)	> 100 µM (inactive)	> 100 µM (inactive)	48.1 µM (inactive)	> 100 µM (inactive)	82 µM (inactive)	> 100 µM (inactive)	
Clc1ccccc1C(Nc1ncccn1)Nc1ncccn1	> 100 µM (inactive)	> 100 µM (inactive)	> 100 µM (inactive)	> 100 µM (inactive)	> 100 µM (inactive)	47 µM (inactive)	> 100 µM (inactive)	> 100 µM (inactive)	> 100 µM (inactive)	> 100 µM (inactive)	> 100 µM (inactive)		> 100 µM (inactive)	> 100 µM (inactive)	> 100 µM (inactive)	> 100 µM (inactive)	> 100 µM (inactive)	
Cc1cc2c(cc1C)C(=O)C1(C2)Cc2c(C)ccc(C)c2C1=O (stereo not given)	> 100 µM (inactive)	> 100 µM (inactive)	> 100 µM (inactive)	25.2 µM (inactive)	> 100 µM (inactive)	> 100 µM (inactive)	> 100 µM (inactive)		84.7 µM (inactive)	84.5 µM (inactive)	> 100 µM (inactive)	84.9 µM (inactive)		> 100 µM (inactive)	> 100 µM (inactive)	> 100 µM (inactive)		> 100 µM (inactive)
C[N+]12C=CC=C1C(N1CCCC1)c1sc(-c3ccc(Cl)cc3)cc12 (stereo not given)	15.8 µM (inactive)	16.3 µM (inactive)	13.6 µM (inactive)	10.6 µM (inactive)	16.1 µM (inactive)	11.3 µM (inactive)	16 µM (inactive)		17.9 µM (inactive)	22.1 µM (inactive)	15.9 µM (inactive)	15.6 µM (inactive)	18.7 µM (inactive)	19.6 µM (inactive)	18.3 µM (inactive)	14.7 µM (inactive)	17.5 µM (inactive)	17.5 µM (inactive)
O=C(N/N=C(COc1cccc(Cl)c1)\N=C\c1ccncc1)c1ccncc1	> 100 µM (inactive)	> 100 µM (inactive)	> 100 µM (inactive)	> 100 µM (inactive)	> 100 µM (inactive)		> 100 µM (inactive)	> 100 µM (inactive)	36.4 µM (inactive)	> 100 µM (inactive)	> 100 µM (inactive)	> 100 µM (inactive)	> 100 µM (inactive)	> 100 µM (inactive)	> 100 µM (inactive)	> 100 µM (inactive)	> 100 µM (inactive)	> 100 µM (inactive)
CNC(=O)CCC(NC(=O)OC(C)(C)C)C(=O)NC(Cc1ccc(NC(=O)CCCCC(C)=O)cc1)C(=O)NCC(=O)NC (stereo not given)	> 100 µM (inactive)	> 100 µM (inactive)	> 100 µM (inactive)	> 100 µM (inactive)	> 100 µM (inactive)	> 100 µM (inactive)	> 100 µM (inactive)	> 100 µM (inactive)	> 100 µM (inactive)	> 100 µM (inactive)	> 100 µM (inactive)	> 100 µM (inactive)	> 100 µM (inactive)	> 100 µM (inactive)	> 100 µM (inactive)	> 100 µM (inactive)	> 100 µM (inactive)	
CC(=O)OCC12C(=O)C[C@@H](C)C3(CC(c4ccoc4)OC3=O)C1CCC(OC(C)=O)C21CO1 (stereo not given in full)	> 100 µM (inactive)	> 100 µM (inactive)	> 100 µM (inactive)	> 100 µM (inactive)	> 100 µM (inactive)	> 100 µM (inactive)	> 100 µM (inactive)	> 100 µM (inactive)	87.3 µM (inactive)	> 100 µM (inactive)	> 100 µM (inactive)	> 100 µM (inactive)		> 100 µM (inactive)	> 100 µM (inactive)	> 100 µM (inactive)	> 100 µM (inactive)	
COc1cc2cc(C(=O)N3CC(CCl)c4c3cc(NCCN)c3ccccc43)[nH]c2c(OC)c1OC (stereo not given)	< 0.0105 µM (active)	< 0.01 µM (active)	< 0.01 µM (active)	< 0.01 µM (active)	< 0.01 µM (active)	0.0102 µM (active)	< 0.01 µM (active)	< 0.01 µM (active)	< 0.01 µM (active)	< 0.01 µM (active)	< 0.01 µM (active)	< 0.01 µM (active)	< 0.0189 µM (active)	< 0.01 µM (active)	< 0.01 µM (active)	< 0.01 µM (active)	< 0.01 µM (active)	
CCOC(=O)C1(C#N)C(C#N)(C#N)C1(C#N)C#N	> 100 µM (inactive)	> 100 µM (inactive)	> 100 µM (inactive)	> 100 µM (inactive)	> 100 µM (inactive)		> 100 µM (inactive)	> 100 µM (inactive)	> 100 µM (inactive)	> 100 µM (inactive)	> 100 µM (inactive)	> 100 µM (inactive)	> 100 µM (inactive)	> 100 µM (inactive)	> 100 µM (inactive)	> 100 µM (inactive)	> 100 µM (inactive)	> 100 µM (inactive)
OCc1ccc2c(c1)CC1(Cc3ccc(/C=N/O)cc3C1)C2 (stereo not given)	0.328 µM (active)	3.74 µM (inactive)	5.35 µM (inactive)	11.3 µM (inactive)	3.26 µM (inactive)	2.88 µM (inactive)	2.93 µM (inactive)	3.19 µM (inactive)		2.45 µM (inactive)	1.68 µM (inactive)	9.1 µM (inactive)	6.05 µM (inactive)	13.4 µM (inactive)	6.27 µM (inactive)	2 µM (inactive)	5.45 µM (inactive)	1.96 µM (inactive)
Cc1ccc(/C(=C\C(=O)C(=O)NC23CC4CC(CC(C4)C2)C3)Sc2ccccc2)cc1	> 10 µM (inactive)	4.31 µM (inactive)		> 10 µM (inactive)		> 10 µM (inactive)	> 10 µM (inactive)	> 10 µM (inactive)	> 10 µM (inactive)	> 10 µM (inactive)	> 10 µM (inactive)	> 10 µM (inactive)	> 10 µM (inactive)	> 10 µM (inactive)	> 10 µM (inactive)	> 10 µM (inactive)	> 10 µM (inactive)	4.75 µM (inactive)
O=S1(=O)N=C(SCc2c[nH]c3ccccc23)N(c2ccccc2)c2ccncc21	> 100 µM (inactive)	66.7 µM (inactive)	> 100 µM (inactive)	21.3 µM (inactive)	> 100 µM (inactive)	21.5 µM (inactive)	35.4 µM (inactive)	> 100 µM (inactive)		> 100 µM (inactive)	> 100 µM (inactive)	> 100 µM (inactive)	> 100 µM (inactive)	35.6 µM (inactive)	> 100 µM (inactive)	42.5 µM (inactive)	> 100 µM (inactive)	41.4 µM (inactive)
CCn1c(=O)c2c3cc(OC(C)=O)ccc3oc2c2ccc(OC(C)=O)cc21	33.3 µM (inactive)	33 µM (inactive)	46.9 µM (inactive)	20.2 µM (inactive)	32.2 µM (inactive)	2.69 µM (inactive)		37.9 µM (inactive)	37.2 µM (inactive)	11.1 µM (inactive)	38.4 µM (inactive)	39.4 µM (inactive)	75.9 µM (inactive)	29.5 µM (inactive)	48.4 µM (inactive)	35 µM (inactive)	37.9 µM (inactive)	17.2 µM (inactive)
COC(=O)c1c2c(cc3c1CC1(Cc4cc5c(c(C(C)=O)c4C1)CCCC5)C3)CCCC2 (stereo not given)	66.4 µM (inactive)	24.6 µM (inactive)		> 100 µM (inactive)	60 µM (inactive)		> 100 µM (inactive)	> 100 µM (inactive)	> 100 µM (inactive)	> 100 µM (inactive)		> 100 µM (inactive)	> 100 µM (inactive)	> 100 µM (inactive)	> 100 µM (inactive)	85.1 µM (inactive)	> 100 µM (inactive)	29.2 µM (inactive)
COc1cccc2c(NNc3ccc(Cl)cc3)c3ccc([N+](=O)[O-])cc3nc12	36.4 µM (inactive)	8.91 µM (inactive)	14.8 µM (inactive)	5.43 µM (inactive)	7.28 µM (inactive)		11.3 µM (inactive)	13.3 µM (inactive)	14.7 µM (inactive)	14.5 µM (inactive)	13.8 µM (inactive)	10.3 µM (inactive)	15.1 µM (inactive)	10.3 µM (inactive)	12.7 µM (inactive)	19.2 µM (inactive)	10.9 µM (inactive)	2.74 µM (inactive)
OC(C#CCN1CCCC1)(c1ccccc1)c1ccccc1Cl (stereo not given)	23 µM (inactive)	27.8 µM (inactive)		28.6 µM (inactive)	30.1 µM (inactive)	59.4 µM (inactive)	18.7 µM (inactive)	37.3 µM (inactive)	46.8 µM (inactive)	31 µM (inactive)	18.5 µM (inactive)	> 10 µM (inactive)	61 µM (inactive)	50.8 µM (inactive)	47.1 µM (inactive)	17.9 µM (inactive)	19.5 µM (inactive)	33.6 µM (inactive)

Source: ChEMBL document CHEMBL1201862, “PubChem BioAssay data set” (2004)
